This experiment relates to influenza virus A/Puerto Rico/8/34 (H1N1). Also on record: species or system BALB/cA Jcl [SPF] mice. Conditions: mouse, in vivo, iv.

With `CCC(CC)[C@H](NC(C)=O)[C@@H]1[C@H](O)[C@@H](C(=O)O)C[C@H]1N=C(N)N` [peramivir, reference compound], the survival rate came to 20%.

Values taken from patent US12351652B2, “Hemagglutinin-binding peptide” (priority 2019, dated 2025).
